Data taken from PubChem BioAssay (NCI).
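A five-concentration, 48-hour dose response in 96-well plates underlies each endpoint, interpolated linearly between surrounding concentrations. GI50 marks 50% less growth. Definition used: TGI = concentration required for complete inhibition of growth.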

What was measured:
Test in all cases: NCI-60 cell line screen, 48 h
HOP-62 NSCLC = system: HOP-62 NSCLC
MOLT-4 leukemia = system: MOLT-4 leukemia
HS 578T breast = system: HS 578T breast
SK-MEL-2 melanoma = system: SK-MEL-2 melanoma
K-562 leukemia = system: K-562 leukemia
NCI-H23 lung = system: NCI-H23 lung
U251 CNS = system: U251 CNS
LOX IMVI melanoma = system: LOX IMVI melanoma
LXFL 529 NSCLC = system: LXFL 529 NSCLC
SNB-78 CNS = system: SNB-78 CNS

COc1cccc(C2=C(c3c(C)n(C)c4ccccc34)C(=O)NC2=O)c1
GI50 (HOP-62 NSCLC): > 25 µM | TGI (HOP-62 NSCLC): > 25 µM | GI50 (MOLT-4 leukemia): 16.1 µM | TGI (MOLT-4 leukemia): > 25 µM | GI50 (HS 578T breast): 12.1 µM | TGI (HS 578T breast): > 25 µM | GI50 (SK-MEL-2 melanoma): > 25 µM | TGI (SK-MEL-2 melanoma): > 25 µM | GI50 (K-562 leukemia): 11 µM | TGI (K-562 leukemia): > 25 µM | GI50 (NCI-H23 lung): > 25 µM | TGI (NCI-H23 lung): > 25 µM | GI50 (U251 CNS): > 25 µM | TGI (U251 CNS): > 25 µM | GI50 (LOX IMVI melanoma): > 25 µM | TGI (LOX IMVI melanoma): > 25 µM

COc1ccc2c(c1)[n+]([O-])c(-c1ccc(OC)c(OC)c1)c(N)[n+]2[O-]
TGI (HOP-62 NSCLC): > 100 µM | TGI (MOLT-4 leukemia): > 100 µM | TGI (SK-MEL-2 melanoma): > 100 µM | TGI (K-562 leukemia): > 100 µM | TGI (LXFL 529 NSCLC): > 100 µM | TGI (SNB-78 CNS): > 100 µM | TGI (NCI-H23 lung): 57 µM | TGI (U251 CNS): > 100 µM | TGI (LOX IMVI melanoma): > 100 µM

COc1ccc2c(=O)cc(-c3ccncc3)oc2c1OC
TGI (HOP-62 NSCLC): > 100 µM | TGI (MOLT-4 leukemia): 41.7 µM | TGI (HS 578T breast): 53.7 µM | TGI (SK-MEL-2 melanoma): 68.2 µM | TGI (K-562 leukemia): > 100 µM | TGI (NCI-H23 lung): > 100 µM | TGI (U251 CNS): > 100 µM | TGI (LOX IMVI melanoma): > 100 µM

COC(=O)[C@@]12OC[C@]34[C@H]([C@@H](O)[C@@H]1O)[C@@]1(C)[C@H](O)C(=O)C=C(C)[C@@H]1C[C@H]3OC(=O)C(OC(C)=O)[C@@H]24 (some centres undefined)
GI50 (HOP-62 NSCLC): 0.0294 µM | TGI (HOP-62 NSCLC): 0.156 µM | GI50 (MOLT-4 leukemia): < 0.0145 µM | TGI (MOLT-4 leukemia): 0.0487 µM | GI50 (HS 578T breast): 0.0193 µM | TGI (HS 578T breast): 0.0523 µM | GI50 (SK-MEL-2 melanoma): 0.0574 µM | TGI (SK-MEL-2 melanoma): 0.319 µM | GI50 (K-562 leukemia): 0.0314 µM | GI50 (NCI-H23 lung): 0.0187 µM | TGI (NCI-H23 lung): 0.0567 µM | GI50 (U251 CNS): 0.0207 µM | TGI (U251 CNS): 0.0443 µM | GI50 (LOX IMVI melanoma): 0.0152 µM | TGI (LOX IMVI melanoma): 0.0311 µM

COc1cc2ccccc2oc1=O
TGI (HOP-62 NSCLC): > 100 µM | TGI (MOLT-4 leukemia): > 100 µM | TGI (HS 578T breast): > 100 µM | TGI (SK-MEL-2 melanoma): > 100 µM | TGI (K-562 leukemia): > 100 µM | TGI (NCI-H23 lung): > 100 µM | TGI (U251 CNS): > 100 µM | TGI (LOX IMVI melanoma): > 100 µM

C=C1/C(=C\C=C2/CCC[C@]3(C)[C@@H]([C@H](C)CCCC(C)(C)O)CC[C@@H]23)C[C@@H](OC(=O)CBr)C[C@@H]1O
GI50 (HOP-62 NSCLC): 12.9 µM | TGI (HOP-62 NSCLC): 30.5 µM | GI50 (MOLT-4 leukemia): 0.371 µM | TGI (MOLT-4 leukemia): 2.05 µM | GI50 (HS 578T breast): 1.79 µM | TGI (HS 578T breast): 8.12 µM | GI50 (SK-MEL-2 melanoma): 9.75 µM | TGI (SK-MEL-2 melanoma): 28.6 µM | GI50 (K-562 leukemia): 2.75 µM | TGI (K-562 leukemia): > 33.9 µM | GI50 (NCI-H23 lung): 0.386 µM | TGI (NCI-H23 lung): 2.31 µM | GI50 (U251 CNS): 4.51 µM | TGI (U251 CNS): 18.8 µM | GI50 (LOX IMVI melanoma): 0.147 µM | TGI (LOX IMVI melanoma): 0.304 µM

O=c1c2ccccc2c(=O)n2n1CC=CC2
TGI (MOLT-4 leukemia): > 100 µM | TGI (SK-MEL-2 melanoma): > 100 µM | TGI (K-562 leukemia): > 100 µM | TGI (LXFL 529 NSCLC): > 100 µM | TGI (SNB-78 CNS): > 100 µM | TGI (NCI-H23 lung): > 100 µM | TGI (U251 CNS): > 100 µM | TGI (LOX IMVI melanoma): > 100 µM

O=[N+]([O-])c1ccc2c(c1)Cc1cc(N=Cc3ccc4c(c3)OCO4)ccc1-2
TGI (HOP-62 NSCLC): > 100 µM | TGI (MOLT-4 leukemia): > 100 µM | TGI (HS 578T breast): > 100 µM | TGI (SK-MEL-2 melanoma): > 100 µM | TGI (K-562 leukemia): > 100 µM | TGI (NCI-H23 lung): > 100 µM | TGI (U251 CNS): > 100 µM | TGI (LOX IMVI melanoma): > 100 µM

COc1cccc2c1ccc1nc3cccc(C(=O)N[C@H](C)CN(C)C)c3nc12
GI50 (HOP-62 NSCLC): 0.084 µM | TGI (HOP-62 NSCLC): 0.787 µM | GI50 (MOLT-4 leukemia): 0.0454 µM | TGI (MOLT-4 leukemia): 4.85 µM | GI50 (HS 578T breast): 0.166 µM | TGI (HS 578T breast): 3.42 µM | GI50 (SK-MEL-2 melanoma): 0.175 µM | TGI (SK-MEL-2 melanoma): 0.643 µM | GI50 (K-562 leukemia): 0.0474 µM | TGI (K-562 leukemia): 4.77 µM | GI50 (NCI-H23 lung): 0.0929 µM | TGI (NCI-H23 lung): 0.382 µM | GI50 (U251 CNS): 0.0441 µM | TGI (U251 CNS): 8.28 µM | GI50 (LOX IMVI melanoma): 0.0474 µM | TGI (LOX IMVI melanoma): 0.55 µM
